The record followed here is patent US20050245563A1 (Millennium Pharmaceuticals, Inc., priority 2003, published 2005).

In experiment [1] the target is T1, human Chk1 (GST-Chk1) (Homo sapiens, UniProt O14757).
T1 construct: made in house; host or cells: insect cells (baculovirus, Bac-to-Bac)
T1 sequence (O14757 1-476): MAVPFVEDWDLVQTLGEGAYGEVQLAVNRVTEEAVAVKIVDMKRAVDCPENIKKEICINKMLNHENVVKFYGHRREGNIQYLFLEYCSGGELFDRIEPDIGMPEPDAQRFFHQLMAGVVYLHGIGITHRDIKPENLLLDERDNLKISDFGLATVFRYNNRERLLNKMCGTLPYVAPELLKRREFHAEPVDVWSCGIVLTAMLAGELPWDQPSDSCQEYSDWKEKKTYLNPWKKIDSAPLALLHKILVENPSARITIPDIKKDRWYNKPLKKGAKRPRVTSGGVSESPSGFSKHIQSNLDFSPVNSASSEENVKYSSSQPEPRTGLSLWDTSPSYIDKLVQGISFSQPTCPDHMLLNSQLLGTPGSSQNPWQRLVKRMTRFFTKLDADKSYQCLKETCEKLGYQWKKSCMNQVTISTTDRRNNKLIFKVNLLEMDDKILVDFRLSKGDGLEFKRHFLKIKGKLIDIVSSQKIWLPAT
Briefly: Chk1 FlashPlate kinase assay. The experiment is classed as biochemical. As to conditions: 8.7 nM GST-Chk1, 1 uM ATP, 33P incorporation into peptide substrate. The method, then:
Recombinant human Chk1 was expressed as a fusion protein with glutathione S-transferase at the amino-terminus (GST-Chk1) using standard baculovirus vectors and (Bac-to-Bac®) insect cell expression system purchased from GIBCO™ Invitrogen. Recombinant protein expressed in insect cells was purified using glutathione sepharose (Amersham Biotech) using standard procedures described by the manufacturer.
Chk1 FlashPlate® Kinase Assay:
Assays (25 μL) contained 8.7 nM GST-Chk1, 10 mM MES, 0.1 mM ethylene glycol-bis(β-aminoethylether)-N,N,N′,N′-tetracetic acid (EGTA, pH 8.0), 2 mM DTT, 0.05% Tween 20, 3 uM peptide substrate (Biotin-ILSRRPSYRKILND-free acid) (SEQ ID NO: 1), 1 uM ATP, 0.4 uCi ^33P-γ-ATP (NEN), 4% DMSO. Reactions were incubated for 30 minutes at room temperature, terminated with 50 μL of 50 mM EDTA and 90 μL were transferred to streptavidin-coated FlashPlates® (NEN) and incubated for 1 hour at room temperature. Plates were washed with phosphate buffered salaine containing 0.01% Tween-20 and 10 mM sodium pyrophosphate. Plates were dried, sealed with Topseal™ (NEN) and amount of ^33P incorporated into the peptide substate measure using a Packard Topcount® NXT™ scintillation counter with standard settings.

For experiment [2], the target named is T1, human Chk1 (GST-Chk1). Briefly: Chk1 DELFIA kinase assay (2 nM GST-Chk1, 600 μM ATP). The experiment is classed as biochemical. The conditions noted are these: Biotin-GLYRSPSMPEN-amide substrate. Put shortly: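 Enzyme is N-terminal GST-Chk1 from baculovirus/insect cells, assayed with 1 μM biotin-GLYRSPSMPEN-amide in pH 7.5 Tris buffer, 4% DMSO and 10 mM MgCl2 for 50 min at room temperature. EDTA-stopped reactions were captured on NeutrAvidin. Phospho-peptide was detected by anti-phospho-Ser216-Cdc25c antibody with europium-labeled secondary and time-resolved fluorescence.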

SMILES strings stand for the structures. Counter-ions that a name gives are not always drawn.

Usually IC50 stands for the concentration at which inhibition is half-maximal. High values mean weaker potency, low ones greater potency. Compound `Cc1n[nH]c2c1c(=O)n(CCNC(=O)OC(C)(C)C)c1ccccc21` [Example 1, [2-(3-Methyl-4-oxo-1,4-dihydro-pyrazolo[4,3-c]quinolin-5-yl)-ethyl]-carbamic acid tert-butyl ester] yielded an IC50 against human Chk1 (GST-Chk1) [1] of 1 to 20 µM.

The compound `Cc1n[nH]c2c1c(=O)n(Cc1cccnc1)c1ccccc21` [Example 2, 3-Methyl-5-pyridin-3-ylmethyl-1,5-dihydro-pyrazolo[4,3-c]quinolin-4-one] came in with an IC50 at human Chk1 (GST-Chk1) [1] of 1 to 20 µM.

Consider `CC(=O)OCCn1c(=O)c2c(C)n[nH]c2c2ccccc21` [Example 3, Acetic acid 2-(3-methyl-4-oxo-1,4-dihydro-pyrazolo[4,3-c]quinolin-5-yl)-ethyl ester], for which the IC50 against human Chk1 (GST-Chk1) [1] fell in the range of 1 to 20 µM.

Compound `Cc1n[nH]c2c1c(=O)n(CCNCc1ccccc1)c1ccccc21` [Example 4, 5-(2-Benzylamino-ethyl)-3-methyl-1,5-dihydro-pyrazolo[4,3-c]quinolin-4-one] had an IC50 on human Chk1 (GST-Chk1) [1] below 1 µM.

`Cc1n[nH]c2c1c(=O)n(CCCNCc1ccccc1)c1ccccc21` [Example 5, 5-(3-Benzylamino-propyl)-3-methyl-1,5-dihydro-pyrazolo[4,3-c]quinolin-4-one] returned an IC50 against human Chk1 (GST-Chk1) [1] below 1 µM.

On human Chk1 (GST-Chk1) [1], `Cc1n[nH]c2c1c(=O)n(CCCNC(=O)OC(C)(C)C)c1ccccc21` [Example 6, [3-(3-Methyl-4-oxo-1,4-dihydro-pyrazolo[4,3-c]quinolin-5-yl)-propyl]-carbamic acid tert-butyl ester] registered an IC50 below 1 µM.

In the case of `Cc1n[nH]c2c1c(=O)n(CCN(C)C)c1ccccc21` [Example 7, 5-(2-Dimethylamino-ethyl)-3-methyl-1,5-dihydro-pyrazolo[4,3-c]quinolin-4-one hydrochloride], the IC50 against human Chk1 (GST-Chk1) [1] lay in the range of 1 to 20 µM.

The compound `Cc1n[nH]c2c1c(=O)n(CCN1CCOCC1)c1ccccc21` [Example 8, 3-Methyl-5-(2-morpholin-4-yl-ethyl)-1,5-dihydro-pyrazolo[4,3-c]quinolin-4-one] had an IC50 at human Chk1 (GST-Chk1) [1] of 1 to 20 µM.

Take `Cc1n[nH]c2c1c(=O)n(CCCN1CCc3ccccc3C1)c1ccccc21` [Example 9, 5-[3-(3,4-Dihydro-1H-isoquinolin-2-yl)-propyl]-3-methyl-1,5-dihydro-pyrazolo[4,3-c]quinolin-4-one]: the IC50 against human Chk1 (GST-Chk1) [1] was below 1 µM.

As to `Cc1n[nH]c2c1c(=O)n(CCO)c1ccccc21` [Example 10, 5-(2-Hydroxy-ethyl)-3-methyl-1,5-dihydro-pyrazolo[4,3-c]quinolin-4-one], at human Chk1 (GST-Chk1) [1], the IC50 is below 1 µM.

In turn, `Cc1n[nH]c2c1c(=O)n(CCN)c1ccccc21` [Example 11, 5-(2-Amino-ethyl)-3-methyl-1,5-dihydro-pyrazolo[4,3-c]quinolin-4-one] gave an IC50 on human Chk1 (GST-Chk1) [1] below 1 µM.

Compound `Cc1n[nH]c2c1c(=O)n(CCCOCc1ccccc1)c1ccccc21` [Example 12, 5-(3-Benzyloxy-propyl)-3-methyl-1,5-dihydro-pyrazolo[4,3-c]quinolin-4-one] gave an IC50 against human Chk1 (GST-Chk1) [1] below 1 µM.

For the compound `Cc1n[nH]c2c1c(=O)n(CCCNC(=O)OCc1ccccc1)c1ccccc21` [Example 13, [3-(3-Methyl-4-oxo-1,4-dihydro-pyrazolo[4,3-c]quinolin-5-yl)-propyl]-carbamic acid benzyl ester], the IC50 against human Chk1 (GST-Chk1) [1] was below 1 µM.

Take `Cc1n[nH]c2c1c(=O)n(CCCO)c1ccccc21` [Example 14, 5-(3-Hydroxy-propyl)-3-methyl-1,5-dihydro-pyrazolo[4,3-c]quinolin-4-one]: on human Chk1 (GST-Chk1) [1], the IC50 was below 1 µM.

With `Cc1n[nH]c2c1c(=O)n(CCCN)c1ccccc21` [Example 15, 5-(3-Amino-propyl)-3-methyl-1,5-dihydro-pyrazolo[4,3-c]quinolin-4-one], the IC50 against human Chk1 (GST-Chk1) [1] is below 1 µM.

Turning to `Cc1[nH]nc2c1c(=O)n(CCCN(C)C)c1ccc(Cl)cc21` [Example 16, 8-Chloro-5-(3-dimethylamino-propyl)-3-methyl-2,5-dihydro-pyrazolo[4,3-c]quinolin-4-one], the IC50 against human Chk1 (GST-Chk1) [1] is below 1 µM.

As to `COC(=O)CCCn1c(=O)c2c(C)n[nH]c2c2cc(Br)ccc21` [Example 17, 4-(8-Bromo-3-methyl-4-oxo-1,4-dihydro-pyrazolo[4,3-c]quinolin-5-yl)-butyric acid methyl ester], the IC50 on human Chk1 (GST-Chk1) [1] is below 1 µM.

The compound `Cc1[nH]nc2c1c(=O)n(CCCN(C)C)c1ccc(Br)cc21` [Example 18, 8-Bromo-5-(3-dimethylamino-propyl)-3-methyl-2,5-dihydro-pyrazolo[4,3-c]quinolin-4-one] came in with an IC50 at human Chk1 (GST-Chk1) [1] below 1 µM.

`Cc1n[nH]c2c1c(=O)n(CCCC(=O)O)c1ccc(Br)cc21` [Example 19, 4-(8-Bromo-3-methyl-4-oxo-1,4-dihydro-pyrazolo[4,3-c]quinolin-5-yl)-butyric acid] displayed an IC50 at human Chk1 (GST-Chk1) [1] below 1 µM.

In turn, `Cc1[nH]nc2c1c(=O)n(CCCC#N)c1ccc(Br)cc21` [Example 20, 4-(8-Bromo-3-methyl-4-oxo-2,4-dihydro-pyrazolo[4,3-c]quinolin-5-yl)-butyronitrile] had an IC50 against human Chk1 (GST-Chk1) [1] below 1 µM.

As to `Cc1n[nH]c2c1c(=O)n(CCCC(=O)N1CCN(C(=O)OC(C)(C)C)CC1)c1ccc(Br)cc21` [Example 21, 4-[4-(8-Bromo-3-methyl-4-oxo-1,4-dihydro-pyrazolo[4,3-c]quinolin-5-yl)-butyryl]-piperazine-1-carboxylic acid tert-butyl ester], the IC50 against human Chk1 (GST-Chk1) [1] is below 1 µM.

At human Chk1 (GST-Chk1) [1], `Cc1n[nH]c2c1c(=O)n(CCCC(=O)NCc1ccc(Cl)cc1)c1ccc(Br)cc21` [Example 22, 4-(8-Bromo-3-methyl-4-oxo-1,4-dihydro-pyrazolo[4,3-c]quinolin-5-yl)-N-(4-chloro-benzyl)-butyramide] had an IC50 below 1 µM.

In the case of `Cc1n[nH]c2c1c(=O)n(CC(N)Cc1ccccc1)c1ccccc21` (centres unmarked) [Example 23, 5-(2-Amino-3-phenyl-propyl)-3-methyl-1,5-dihydro-pyrazolo[4,3-c]quinolin-4-one], the IC50 on human Chk1 (GST-Chk1) [1] is above 20 µM.

At human Chk1 (GST-Chk1) [1], `Cc1[nH]nc2c1c(=O)[nH]c1c(OCCCNC(=O)OC(C)(C)C)cccc12` [Example 24, [3-(3-Methyl-4-oxo-4,5-dihydro-2H-pyrazolo[4,3-c]quinolin-6-yloxy)-propyl]-carbamic acid tert-butyl ester] came in with an IC50 above 20 µM.

`Cc1[nH]nc2c1c(=O)[nH]c1c(OCCCN)cccc12` [Example 25, 6-(3-Amino-propoxy)-3-methyl-2,5-dihydro-pyrazolo[4,3-c]quinolin-4-one]: the IC50 against human Chk1 (GST-Chk1) [1] is 1 to 20 µM.

Turning to `Cc1n[nH]c2c1c(=O)n(CCCCNC(=O)OC(C)(C)C)c1ccc(Br)cc21` [Example 29, [4-(8-Bromo-3-methyl-4-oxo-1,4-dihydro-pyrazolo[4,3-c]quinolin-5-yl)-butyl]-carbamic acid tert-butyl ester], on human Chk1 (GST-Chk1) [1], the IC50 is below 1 µM.

`CCCc1[nH]nc2c1c(=O)n(CCCN)c1ccc(Cl)cc21` [Example 364, 5-(3-Amino-propyl)-8-chloro-3-propyl-2,5-dihydro-pyrazolo[4,3-c]quinolin-4-one] had an IC50 against human Chk1 (GST-Chk1) [2] below 1 µM.

With `NCCCn1c(=O)c2c(C3CCCC3)[nH]nc2c2cc(Cl)ccc21` [Example 365, 5-(3-Amino-propyl)-8-chloro-3-cyclopentyl-2,5-dihydro-pyrazolo[4,3-c]quinolin4-one], the IC50 on human Chk1 (GST-Chk1) [2] is below 1 µM.

At human Chk1 (GST-Chk1) [2], `Cc1[nH]nc2c1c(=O)n(CCCN)c1cc(C(=O)NCCc3cccnc3)ccc21` [Example 366, 5-(3-Amino-propyl)-3-methyl-4-oxo-4,5-dihydro-2H-pyrazolo[4,3-c]quinoline-7-carboxylic acid (2-pyridin-3-yl-ethyl)-amide] had an IC50 below 1 µM.

Turning to `Cc1[nH]nc2c1c(=O)n(C)c1c(CCCO)cc(Cl)cc21` [Example 367, 8-Chloro-6-(3-hydroxy-propyl)-3,5-dimethyl-2,5-dihydro-pyrazolo[4,3-c]quinolin-4-one], the IC50 against human Chk1 (GST-Chk1) [2] was below 1 µM.

On human Chk1 (GST-Chk1) [2], `CCN(CC)CCC(=O)Nc1ccc2c(c1)c1n[nH]c(C)c1c(=O)n2CCCN` [Example 368, N-[5-(3-Amino-propyl)-3-methyl-4-oxo-4,5-dihydro-2H-pyrazolo[4,3-c]quinolin-8-yl]-3-diethylamino-propionamide] yielded an IC50 below 1 µM.

`Cc1[nH]nc2c1c(=O)n(CCCN)c1ccc(NC(=O)CCN3CCCCC3)cc21` [Example 369, N-[5-(3-Amino-propyl)-3-methyl4-oxo-4,5-dihydro-2H-pyrazolo[4,3-c]quinolin-8-yl]-3-piperidin-1-yl-propionamide] had an IC50 against human Chk1 (GST-Chk1) [2] below 1 µM.
